Assay results from patent US20110257258A1 (priority 2006, published 2011).

Columns and labels:
[1] = system: H5N1; type: cell-based
[2] = system: Avian Influenza virus; design: species or system Human; details: in vivo
[3] = system: Avian Influenza virus; design: species or system Human; details: in vivo; remark: listed apart in the source

Molecule	inhibits H5N1 infections in mammalian cells by blocking the attachment and entry into the cells [1]	abatement of Avian Influenza symptoms [2]	recovery from the Avian Influenza illness [2]	adults in the test group developing Avian Influenza symptoms [3]
O=C(O[C@@H]1Cc2c(O)cc(O)cc2O[C@@H]1c1cc(=O)c(O)c2c(O)c(O)cc([C@H]3Oc4cc(O)cc(O)c4C[C@H]3O)c2c1)c1cc(O)c(O)c(O)c1 [theaflavin-3-monogallate]	inhibits H5N1 infections	–	–	–
O=c1c(O)cc([C@H]2Oc3cc(O)cc(O)c3C[C@H]2O)cc2c([C@H]3Oc4cc(O)cc(O)c4C[C@H]3O)cc(O)c(O)c12 [theaflavin]	inhibits H5N1 infections	abate more rapidly than normal	fully recovers	None
(−)-epigallocatechin gallate [EGCG]	inhibits H5N1 infections	–	–	–
theaflavin-3,3′-digallate	inhibits H5N1 infections	–	–	–
theaflavin-3′-gallate	inhibits H5N1 infections	–	–	–
